From ChEMBL document CHEMBL1275493, “Anti-human immunodeficiency virus type 1 activities of antimicrobial peptides derived from human and bovine cathelicidins” (Antimicrob Agents Chemother, 2008)
Peptide text beside a SMILES is read from it.

Tests used:
[1] = system: Human immunodeficiency virus 1; assay: Antiviral activity against Human immunodeficiency virus 1 3B infected in CEM-SS cells; format: functional, organism-based
[2] = system: CEM-SS; assay: Cytotoxicity against Human immunodeficiency virus 1 3B infected human CEM-SS cells; format: functional; settings: read-out: TC50 (the source's name)
[3] = Therapeutic index, TC50 for Human immunodeficiency virus 1 3B infected human CEM-SS cells to EC50 for immunodeficiency virus 1 3B; format: cell-based; settings: CEM-SS cells infected with HIV-1 3B, read-out: TI

SMILES	EC50 [1] [µM]	CC50 [2] [µM]	selectivity ratio [3]
CC(C)C[C@H](NC(=O)[C@H](CCCCN)NC(=O)[C@H](CCCCN)NC(=O)[C@H](Cc1ccccc1)NC(=O)[C@H](CCCCN)NC(=O)[C@H](CCCCN)NC(=O)[C@H](CCCNC(=N)N)NC(=O)[C@H](Cc1ccccc1)NC(=O)[C@H](CCCNC(=N)N)NC(=O)[C@H](CCCCN)NC(=O)[C@H](Cc1ccccc1)NC(=O)[C@H](CCCNC(=N)N)NC(=O)CN)C(=O)N[C@@H](Cc1ccccc1)C(=O)N[C@@H](CCCCN)C(=O)O (H-GRFKRFRKKFKKLFK-OH)	> 49.6	> 49.6	
CC[C@H](C)[C@H](NC(=O)CN)C(=O)N[C@@H](CCCCN)C(=O)N[C@@H](CCC(=O)O)C(=O)N[C@@H](Cc1c[nH]c2ccccc12)C(=O)N[C@@H](CCCCN)C(=O)N[C@@H](CCCNC(=N)N)C(=O)N[C@H](C(=O)N[C@H](C(=O)N[C@@H](CCC(N)=O)C(=O)N[C@@H](CCCNC(=N)N)C(=O)N[C@H](C(=O)N[C@@H](CCCCN)C(=O)N[C@@H](CC(=O)O)C(=O)N[C@@H](Cc1ccccc1)C(=O)N[C@@H](CC(C)C)C(=O)N[C@@H](CCCNC(=N)N)C(=O)N[C@@H](CC(N)=O)C(=O)N[C@@H](CC(C)C)C(=O)N[C@H](C(=O)O)C(C)C)[C@@H](C)CC)C(C)C)[C@@H](C)CC (H-GIKEWKRIVQRIKDFLRNLV-OH) [listing 1 of 2 here]		23.6	
CC[C@H](C)[C@H](NC(=O)[C@H](CCCCN)NC(=O)[C@H](CC(=O)O)NC(=O)[C@H](Cc1ccccc1)NC(=O)[C@H](CC(C)C)NC(=O)[C@@H](N)CCCNC(=N)N)C(=O)N[C@@H](CCCNC(=N)N)C(=O)N[C@@H](CCC(N)=O)C(=O)N[C@H](C(=O)N[C@H](C(=O)N[C@@H](CCCNC(=N)N)C(=O)N[C@@H](CCCCN)C(=O)N[C@@H](Cc1ccccc1)C(=O)O)[C@@H](C)CC)C(C)C (H-RLFDKIRQVIRKF-OH)	> 58.1	33.7	
CC[C@H](C)[C@H](NC(=O)[C@H](CCCCN)NC(=O)[C@H](CCCCN)NC(=O)[C@H](Cc1ccccc1)NC(=O)[C@H](CC(C)C)NC(=O)[C@H](CCCCN)NC(=O)[C@H](CCCCN)NC(=O)[C@H](CC(C)C)NC(=O)[C@H](CCCCN)NC(=O)[C@H](CCCCN)NC(=O)[C@H](CCCNC(=N)N)NC(=O)[C@@H](NC(=O)[C@H](CCCNC(=N)N)NC(=O)[C@H](CCCCN)NC(=O)[C@H](Cc1ccccc1)NC(=O)[C@H](CCCNC(=N)N)NC(=O)CN)[C@@H](C)CC)C(=O)N[C@@H](CO)C(=O)O (H-GRFKRIRKKLKKLFKKIS-OH) [listing 1 of 2 here]	> 44		
CC[C@H](C)[C@H](NC(=O)[C@H](CCCNC(=N)N)NC(=O)[C@H](CCCCN)NC(=O)[C@H](Cc1ccccc1)NC(=O)CN)C(=O)N[C@H](C(=O)N[C@@H](CCC(N)=O)C(=O)N[C@@H](CCCNC(=N)N)C(=O)N[C@@H](C(=O)N[C@@H](CCCCN)C(=O)N[C@@H](CC(=O)O)C(=O)N[C@@H](Cc1ccccc1)C(=O)N[C@@H](CC(C)C)C(=O)N[C@@H](CCCNC(=N)N)C(=O)N[C@@H](CC(N)=O)C(=O)N[C@@H](CC(C)C)C(=O)N[C@H](C(=O)O)C(C)C)[C@@H](C)CC)C(C)C	> 47.5	22.7	
CC[C@H](C)[C@H](NC(=O)[C@H](CCCCN)NC(=O)[C@H](CCCCN)NC(=O)[C@H](Cc1ccccc1)NC(=O)[C@H](CC(C)C)NC(=O)[C@H](CCCCN)NC(=O)[C@H](CCCCN)NC(=O)[C@H](CC(C)C)NC(=O)[C@H](CCCCN)NC(=O)[C@H](CCCCN)NC(=O)[C@H](CCCNC(=N)N)NC(=O)[C@@H](NC(=O)[C@H](CCCNC(=N)N)NC(=O)[C@H](CCCCN)NC(=O)[C@H](Cc1ccccc1)NC(=O)[C@H](CCCNC(=N)N)NC(=O)CN)[C@@H](C)CC)C(=O)N[C@@H](CO)C(=O)O (H-GRFKRIRKKLKKLFKKIS-OH) [listing 2 of 2 here]		2.79	
CC[C@H](C)[C@H](NC(=O)CN)C(=O)N[C@@H](CCCCN)C(=O)N[C@@H](CCC(N)=O)C(=O)N[C@@H](Cc1ccccc1)C(=O)N[C@@H](CCCCN)C(=O)N[C@@H](CCCNC(=N)N)C(=O)N[C@H](C(=O)N[C@H](C(=O)N[C@@H](CCC(N)=O)C(=O)N[C@@H](CCCNC(=N)N)C(=O)N[C@H](C(=O)N[C@@H](CCCCN)C(=O)N[C@@H](CC(=O)O)C(=O)N[C@@H](Cc1ccccc1)C(=O)N[C@@H](CC(C)C)C(=O)N[C@@H](CCCNC(=N)N)C(=O)N[C@@H](CC(N)=O)C(=O)N[C@@H](CC(C)C)C(=O)N[C@H](C(=O)O)C(C)C)[C@@H](C)CC)C(C)C)[C@@H](C)CC (H-GIKQFKRIVQRIKDFLRNLV-OH) [listing 2 of 2 here]		13.7	
CC[C@H](C)[C@H](NC(=O)CN)C(=O)N[C@@H](CCCCN)C(=O)N[C@@H](CCC(=O)O)C(=O)N[C@@H](Cc1ccccc1)C(=O)N[C@@H](CCCCN)C(=O)N[C@@H](CCCNC(=N)N)C(=O)N[C@@H](CCC(=O)O)C(=O)N[C@@H](Cc1ccccc1)C(=O)N[C@@H](CCC(N)=O)C(=O)N[C@@H](CCCNC(=N)N)C(=O)N[C@H](C(=O)N[C@@H](CCCCN)C(=O)N[C@@H](CC(=O)O)C(=O)N[C@@H](Cc1ccccc1)C(=O)N[C@@H](CC(C)C)C(=O)N[C@@H](CCCNC(=N)N)C(=O)N[C@@H](CC(N)=O)C(=O)N[C@@H](CC(C)C)C(=O)N[C@H](C(=O)O)C(C)C)[C@@H](C)CC (H-GIKEFKREFQRIKDFLRNLV-OH)		9.9	
CC[C@H](C)[C@H](NC(=O)[C@H](CCCNC(=N)N)NC(=O)[C@H](CCC(N)=O)NC(=O)[C@@H](NC(=O)[C@@H](NC(=O)[C@H](CCCNC(=N)N)NC(=O)[C@@H](N)CCCCN)[C@@H](C)CC)C(C)C)C(=O)N[C@@H](CCCCN)C(=O)N[C@@H](CC(=O)O)C(=O)N[C@@H](Cc1ccccc1)C(=O)N[C@@H](CC(C)C)C(=O)N[C@@H](CCCNC(=N)N)C(=O)O (H-KRIVQRIKDFLR-OH)	> 63.5	> 63.5	
CC[C@H](C)[C@H](NC(=O)[C@H](CCCNC(=N)N)NC(=O)[C@H](CCCCN)NC(=O)[C@H](Cc1ccccc1)NC(=O)CN)C(=O)N[C@H](C(=O)N[C@@H](CCC(N)=O)C(=O)N[C@@H](CCCNC(=N)N)C(=O)N[C@@H](C(=O)N[C@@H](CCCCN)C(=O)N[C@@H](CC(=O)O)C(=O)N[C@@H](Cc1ccccc1)C(=O)N[C@H](CC(C)C)C(=O)N[C@@H](CCCNC(=N)N)C(=O)N[C@@H](CC(N)=O)C(=O)N[C@@H](CC(C)C)C(=O)N[C@H](C(=O)O)C(C)C)[C@@H](C)CC)C(C)C	> 47.5	> 47.5	

Continued, in another order:

EC50 [1] [µM]	SMILES	CC50 [2] [µM]	selectivity ratio [3]
> 40.5	CC[C@H](C)[C@H](NC(=O)[C@H](CCCNC(=N)N)NC(=O)[C@H](CCC(N)=O)NC(=O)[C@@H](NC(=O)[C@@H](NC(=O)[C@H](CCCNC(=N)N)NC(=O)[C@@H](N)CCCCN)[C@@H](C)CC)C(C)C)C(=O)N[C@@H](CCCCN)C(=O)N[C@@H](CC(=O)O)C(=O)N[C@@H](Cc1ccccc1)C(=O)N[C@@H](CC(C)C)C(=O)N[C@@H](CCCNC(=N)N)C(=O)N[C@@H](CC(N)=O)C(=O)N[C@@H](CC(C)C)C(=O)N[C@H](C(=O)N1CCC[C@H]1C(=O)N[C@@H](CCCNC(=N)N)C(=O)N[C@H](C(=O)N[C@@H](CCC(=O)O)C(=O)N[C@@H](CO)C(=O)O)[C@@H](C)O)C(C)C (H-KRIVQRIKDFLRNLVPRTES-OH)	> 40.5	
0.91	CC[C@H](C)[C@H](NC(=O)CN)C(=O)N[C@@H](CCCCN)C(=O)N[C@@H](CCC(N)=O)C(=O)N[C@@H](Cc1ccccc1)C(=O)N[C@@H](CCCCN)C(=O)N[C@@H](CCCNC(=N)N)C(=O)N[C@H](C(=O)N[C@H](C(=O)N[C@@H](CCC(N)=O)C(=O)N[C@@H](CCCNC(=N)N)C(=O)N[C@H](C(=O)N[C@@H](CCCCN)C(=O)N[C@@H](CC(=O)O)C(=O)N[C@@H](Cc1ccccc1)C(=O)N[C@@H](CC(C)C)C(=O)N[C@@H](CCCNC(=N)N)C(=O)N[C@@H](CC(N)=O)C(=O)N[C@@H](CC(C)C)C(=O)N[C@H](C(=O)O)C(C)C)[C@@H](C)CC)C(C)C)[C@@H](C)CC (H-GIKQFKRIVQRIKDFLRNLV-OH) [listing 1 of 2 here]		15.1
7.4	CC[C@H](C)[C@H](NC(=O)CN)C(=O)N[C@@H](CCCCN)C(=O)N[C@@H](CCC(=O)O)C(=O)N[C@@H](Cc1c[nH]c2ccccc12)C(=O)N[C@@H](CCCCN)C(=O)N[C@@H](CCCNC(=N)N)C(=O)N[C@H](C(=O)N[C@H](C(=O)N[C@@H](CCC(N)=O)C(=O)N[C@@H](CCCNC(=N)N)C(=O)N[C@H](C(=O)N[C@@H](CCCCN)C(=O)N[C@@H](CC(=O)O)C(=O)N[C@@H](Cc1ccccc1)C(=O)N[C@@H](CC(C)C)C(=O)N[C@@H](CCCNC(=N)N)C(=O)N[C@@H](CC(N)=O)C(=O)N[C@@H](CC(C)C)C(=O)N[C@H](C(=O)O)C(C)C)[C@@H](C)CC)C(C)C)[C@@H](C)CC (H-GIKEWKRIVQRIKDFLRNLV-OH) [listing 2 of 2 here]		3.2
> 40.6	CC[C@H](C)[C@H](NC(=O)CN)C(=O)N[C@@H](CCCCN)C(=O)N[C@@H](CCC(=O)O)C(=O)N[C@@H](C(=O)N[C@@H](CCCCN)C(=O)N[C@@H](CCCNC(=N)N)C(=O)N[C@H](C(=O)N[C@H](C(=O)N[C@@H](CCC(N)=O)C(=O)N[C@@H](CCCNC(=N)N)C(=O)N[C@H](C(=O)N[C@@H](CCCCN)C(=O)N[C@@H](CC(=O)O)C(=O)N[C@@H](Cc1ccccc1)C(=O)N[C@@H](CC(C)C)C(=O)N[C@@H](CCCNC(=N)N)C(=O)N[C@@H](CC(N)=O)C(=O)N[C@@H](CC(C)C)C(=O)N[C@H](C(=O)O)C(C)C)[C@@H](C)CC)C(C)C)[C@@H](C)CC)c1ccccc1	7.3	
> 35.4	CC[C@H](C)[C@H](NC(=O)[C@H](CCCCN)NC(=O)[C@H](CCC(=O)O)NC(=O)[C@H](CCCCN)NC(=O)[C@H](CO)NC(=O)[C@H](CCCCN)NC(=O)[C@H](CCCNC(=N)N)NC(=O)[C@H](CC(C)C)NC(=O)[C@H](CC(C)C)NC(=O)[C@H](CC(=O)O)NC(=O)CNC(=O)[C@H](CC(C)C)NC(=O)[C@@H](N)CC(C)C)C(=O)NCC(=O)N[C@@H](CCCCN)C(=O)N[C@@H](CCC(=O)O)C(=O)N[C@@H](Cc1ccccc1)C(=O)N[C@@H](CCCCN)C(=O)N[C@@H](CCCNC(=N)N)C(=O)N[C@H](C(=O)N[C@H](C(=O)N[C@@H](CCC(N)=O)C(=O)N[C@@H](CCCNC(=N)N)C(=O)O)C(C)C)[C@@H](C)CC (H-LLGDLLRKSKEKIGKEFKRIVQR-OH)	> 35.4	
